Results: ChEMBL document CHEMBL2331478, “Evaluation of constituents of Piper retrofractum fruits on neurotrophic activity” (J Nat Prod, 2013)
The source made the active and inactive calls. The calls are words filed in the database; no cut-off is given here.

Legend:
PC-12 [1] = test: Potentiation of NGF-induced neurite outgrowth in rat PC12 cells at 0.1 to 10 uM after 4 days using methylene blue staining by phase-contrast microscopy; assay type: functional, cell-based
PC-12 [2] = test: Potentiation of NGF-induced neurite outgrowth in rat PC12 cells after 4 days using methylene blue staining by phase-contrast microscopy; assay type: functional, cell-based

For `CCCCC/C=C\CCCC/C=C/C=C/C(=O)NCC(C)C`, the Activity (PC-12 [1]) was “inactive”.
For `O=C(/C=C/C=C/c1ccc2c(c1)OCO2)N1CCCCC1`, the Activity (PC-12 [1]) was “inactive”.
In the case of `O=C(/C=C/CCCCCCCC/C=C/c1ccc2c(c1)OCO2)N1CCCCC1`, the Activity (PC-12 [1]) is reported as “inactive”.
In the case of `O=C(CCC(=O)c1ccc2c(c1)OCO2)C(=O)N1CCCCC1`, the Activity (PC-12 [2]) is reported as “Dose-dependent effect”.
